These are literature values, as cited in US20240293547A1, “POLYMERIC PERFLUOROCARBON NANOEMULSIONS FOR ULTRASONIC DRUG UNCAGING” (The Board of Trustees of the Leland Stanford Junior …, priority 2017, published 2024).

The conditions of this data set: for LogP: of the loaded drug.

As for `COC(=O)C1=C(C)NC(C)=C(C(=O)OCCN(C)Cc2ccccc2)C1c1cccc([N+](=O)[O-])c1` (stereo not drawn) [Nicardipine], the log partition coefficient (log P) (usually a log measure of how a compound divides between an organic and an aqueous phase) was 3.8; the LogP (commonly the decadic logarithm of the partition coefficient of the neutral form, usually between octanol and water) was 3.82.

As to `Cc1cccc([C@H](C)c2cnc[nH]2)c1C` [Dexmedetomidine], the LogP is 2.8.
